Data as given in patent publication US20110182850A1, “ORGANIC COMPOUNDS AND THEIR USES” (priority 2009, published 2011).

Target: T1, HCV NS3-4A serine protease (full-length NS3-4A protein, genotype 1a, strain HCV-1) (Hepatitis C virus genotype 1a, UniProt P26664)
T1 construct: using the full-length NS3-4A protein (genotype 1a, strain HCV-1)
Experiment: HCV NS3-4A protease assay
Type: biochemical
Settings: Protease IC50
Protocol: The inhibitory activity of certain compounds of Table A against HCV NS3-4A serine protease is determined in a homogenous assay using the full-length NS3-4A protein (genotype 1a, strain HCV-1) and a commercially available internally-quenched fluorogenic peptide substrate as described by Taliani, M., et al. 1996 Anal. Biochem. 240:60-67, which is incorporated by reference in its entirety.

T1 sequence (P26664 1658-1711): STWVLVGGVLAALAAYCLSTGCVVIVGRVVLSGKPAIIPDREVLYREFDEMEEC
T1 sequence (P26664 1027-1657): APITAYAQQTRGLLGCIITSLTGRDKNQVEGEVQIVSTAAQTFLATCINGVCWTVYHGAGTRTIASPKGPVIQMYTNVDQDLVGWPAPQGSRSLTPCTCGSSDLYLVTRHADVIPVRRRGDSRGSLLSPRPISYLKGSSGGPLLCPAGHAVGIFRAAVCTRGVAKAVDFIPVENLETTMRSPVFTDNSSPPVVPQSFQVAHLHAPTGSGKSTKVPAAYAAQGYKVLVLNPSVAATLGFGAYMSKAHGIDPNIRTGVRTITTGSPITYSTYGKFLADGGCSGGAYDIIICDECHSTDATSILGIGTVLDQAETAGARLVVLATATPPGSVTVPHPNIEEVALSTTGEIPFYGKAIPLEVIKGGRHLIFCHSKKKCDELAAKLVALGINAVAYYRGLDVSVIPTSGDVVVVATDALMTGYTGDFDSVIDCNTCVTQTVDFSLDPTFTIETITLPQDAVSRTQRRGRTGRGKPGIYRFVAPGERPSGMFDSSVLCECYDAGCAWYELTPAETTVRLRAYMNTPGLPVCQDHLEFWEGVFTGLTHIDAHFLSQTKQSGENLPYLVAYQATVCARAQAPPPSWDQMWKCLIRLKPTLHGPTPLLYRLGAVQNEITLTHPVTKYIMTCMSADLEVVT

Compound | IC50
C=C[C@@H]1C[C@]1(NC(=O)[C@@H]1C[C@@]2(CN1C(=O)[C@@H](NC(=O)[C@@H](NC(=O)c1nc3ccccc3[nH]1)C(C)(C)C)C(C)(C)C)C(C)(C)C21CCC1)C(=O)NS(=O)(=O)C1CC1 [Compound 120, (5R,8S)-7-[(2S)-2-({(2S)-2-[(1H-benzimidazol-2-ylcarbonyl)amino]-3,3-dimethylbutanoyl}amino)-3,3-dimethylbutanoyl]-N-{(1R,2S)-1-[(cyclopropylsulfonyl)carba-moyl]-2-vinylcyclopropyl}-10,10-dimethyl-7-azadispiro[3.0.4.1]decane-8-carboxamide] | 0.7 nM
C=C[C@@H]1C[C@]1(NC(=O)[C@@H]1C[C@@]2(CN1C(=O)[C@@H](NC(=O)[C@@H](NC(=O)c1ccno1)C(C)(C)C)C(C)(C)C)C(C)(C)C21CCC1)C(=O)NS(=O)(=O)C1CC1 [Compound 121, (5R,8S)-N-{(1R,2S)-1-[(cyclopropylsulfonyl)carba-moyl]-2-vinylcyclopropyl}-7-[(2S)-2-({(2S)-2-[(isoxazol-5-ylcarbonyl)amino]-3,3-dimethylbutanoyl}amino)-3,3-dimethylbutanoyl]-10,10-dimethyl-7-azadispiro[3.0.4.1]decane-8-carboxamide] | 9 nM
C=C[C@@H]1C[C@]1(NC(=O)[C@@H]1C[C@@]2(CN1C(=O)[C@@H](NC(=O)[C@@H](NC(=O)c1ncc[nH]1)C(C)(C)C)C(C)(C)C)C(C)(C)C21CCC1)C(=O)NS(=O)(=O)C1CC1 [Compound 122, (5R,8S)-N-{(1R,2S)-1-[(cyclopropylsulfonyl)carba-moyl]-2-vinylcyclopropyl}-7-[(2S)-2-({(2S)-2-[(1H-imidazol-2-ylcarbonyl)amino]-3,3-dimethylbutanoyl}amino)-3,3-dimethylbutanoyl]-10,10-dimethyl-7-azadispiro[3.0.4.1]decane-8-carboxamide] | 3 nM
C=C[C@H]1C[C@@]1(NC(=O)C1C[C@@]2(CN1C(=O)[C@@H](NC(=O)[C@@H](NC(=O)C1CCN1C(C)(C)C)C(C)(C)C)C(C)(C)C)C(C)(C)C21CCC1)C(=O)NS(=O)(=O)C1CC1 (stereo partly drawn) [Compound 123, (5R)-7-[(2S)-2-{[(2S)-2-{[(1-tert-butylazetidin-2-yl)carbonyl]amino}-3,3-dimethylbutanoyl]amino}-3,3-dimethylbutanoyl]-N-{(1S,2R)-1-[(cyclopropylsulfonyl)carba-moyl]-2-vinylcyclopropyl}-10,10-dimethyl-7-azadispiro[3.0.4.1]decane-8-carboxamide] | 6 nM
C=C[C@@H]1C[C@]1(NC(=O)[C@@H]1C[C@@]2(CN1C(=O)[C@@H](NC(=O)C(NC(=O)c1ccccc1Nc1ccccc1)C1CCCCC1)C(C)(C)C)C(C)(C)C21CCC1)C(=O)NS(=O)(=O)C1CC1 (stereo partly drawn) [Compound 124, (5R,8S)-7-[(2S)-2-({[(2-anilinobenzoyl)amino](cyclo-hexyl)acetyl}amino)-3,3-dimethylbutanoyl]-N-{(1R,2S)-1-[(cyclopropylsulfonyl)carba-moyl]-2-vinylcyclopropyl}-10,10-dimethyl-7-azadispiro[3.0.4.1]decane-8-carboxamide] | 30 nM
C=C[C@@H]1C[C@]1(NC(=O)[C@@H]1C[C@@]2(CN1C(=O)[C@@H](NC(=O)C(NC(=O)c1cc3ccccc3[nH]1)C1CCCCC1)C(C)(C)C)C(C)(C)C21CCC1)C(=O)NS(=O)(=O)C1CC1 (stereo partly drawn) [Compound 125, (5R,8S)-7-[(2S)-2-({cyclohexyl[(1H-indol-2-ylcarbonyl)amino]acetyl}amino)-3,3-dimethylbutanoyl]-N-{(1R,2S)-1-[(cyclopropylsulfonyl)carba-moyl]-2-vinylcyclopropyl}-10,10-dimethyl-7-azadispiro[3.0.4.1]decane-8-carboxamide] | 1.5 nM
C=C[C@@H]1C[C@]1(NC(=O)[C@@H]1C[C@@]2(CN1C(=O)[C@@H](NC(=O)C(NC(=O)c1cc(C(C)(C)C)nn1C)C1CCCCC1)C(C)(C)C)C(C)(C)C21CCC1)C(=O)NS(=O)(=O)C1CC1 (stereo partly drawn) [Compound 126, (5R,8S)-7-[(2S)-2-{[{[(3-tert-butyl-1-methyl-1H-pyrazol-5-yl)carbonyl]amino}(cyclohex-yl)acetyl]amino}-3,3-dimethylbutanoyl]-N-{(1R,2S)-1-[(cyclopropylsulfonyl)carba-moyl]-2-vinylcyclopropyl}-10,10-dimethyl-7-azadispiro[3.0.4.1]decane-8-carboxamide] | 8 nM
C=C[C@@H]1C[C@]1(NC(=O)[C@@H]1C[C@@]2(CN1C(=O)[C@@H](NC(=O)C(NC(=O)c1nccc3ccccc13)C1CCCCC1)C(C)(C)C)C(C)(C)C21CCC1)C(=O)NS(=O)(=O)C1CC1 (stereo partly drawn) [Compound 127, (5R,8S)-7-[(2S)-2-({cyclohexyl[(isoquinolin-1-ylcarbonyl)amino]acetyl}amino)-3,3-dimethylbutanoyl]-N-{(1R,2S)-1-[(cyclopropylsulfonyl)carba-moyl]-2-vinylcyclopropyl}-10,10-dimethyl-7-azadispiro[3.0.4.1]decane-8-carboxamide] | 8 nM
C=C[C@H]1C[C@@]1(NC(=O)[C@@H]1C[C@@]2(CN1C(=O)[C@@H](NC(=O)[C@@H](NC(=O)c1ccccc1N(C)C)C(C)(C)C)C(C)(C)C)C(C)(C)C21CCC1)C(=O)NS(=O)(=O)C1CC1 [Compound 130, (5R,8S)-N-{(1S,2R)-1-[(cyclopropylsulfonyl)carba-moyl]-2-vinylcyclopropyl}-7-[(2S)-2-{[(2S)-2-{[2-(dimethylamino)benzoyl]amino}-3,3-dimethylbutanoyl]amino}-3,3-dimethylbutanoyl]-10,10-dimethyl-7-azadispiro[3.0.4.1]decane-8-carboxamide] | 5.5 nM
C=C[C@@H]1C[C@]1(NC(=O)[C@@H]1C[C@@]2(CN1C(=O)[C@@H](NC(=O)[C@@H](NC(=O)[C@@H]1CCN1C(C)C)C(C)(C)C)C(C)(C)C)C(C)(C)C21CCC1)C(=O)NS(=O)(=O)C1CC1 [Compound 131, (5R,8S)-N-{(1R,2S)-1-[(cyclopropylsulfonyl)carba-moyl]-2-vinylcyclopropyl}-7-[(2S)-2-{[(2S)-2-({[(2S)-1-isopropylazetidin-2-yl]carbonyl}amino)-3,3-dimethylbutanoyl]amino}-3,3-dimethylbutanoyl]-10,10-dimethyl-7-azadispiro[3.0.4.1]decane-8-carboxamide] | 0.8 nM
C=C1CC(NC(=O)[C@@H]2C[C@@]3(CN2C(=O)[C@@H](NC(=O)[C@@H](NC(=O)[C@@H]2CCCCN2C(C)C)C(C)(C)C)C(C)(C)C)C(C)(C)C32CCC2)(C(=O)NS(=O)(=O)C2CC2)C1 [Compound 132, (5R,8S)-N-{1-[(cyclopropylsulfonyl)carba-moyl]-3-methylenecyclobutyl}-7-[(2S)-2-{[(2S)-2-({[(2S)-1-isopropylpiperidin-2-yl]carbonyl}amino)-3,3-dimethylbutanoyl]amino}-3,3-dimethylbutanoyl]-10,10-dimethyl-7-azadispiro[3.0.4.1]decane-8-carboxamide] | 1300 nM
CC(C)N1CCCC[C@H]1C(=O)N[C@H](C(=O)N[C@H](C(=O)N1C[C@]2(C[C@H]1C(=O)NC1(C(=O)NS(=O)(=O)C3CC3)CCC1)C(C)(C)C21CCC1)C(C)(C)C)C(C)(C)C [Compound 133, (5R,8S)-N-{1-[(cyclopropylsulfonyl)carba-moyl]cyclobutyl}-7-[(2S)-2-{[(2S)-2-({[(2S)-1-isopropylpiperidin-2-yl]carbonyl}amino)-3,3-dimethylbutanoyl]amino}-3,3-dimethylbutanoyl]-10,10-dimethyl-7-azadispiro[3.0.4.1]decane-8-carboxamide] | 450 nM
CC[C@@H]1C[C@]1(NC(=O)[C@@H]1C[C@@]2(CN1C(=O)[C@@H](NC(=O)[C@@H](NC(=O)c1cnccn1)C(C)(C)C)C(C)(C)C)C(C)(C)C21CCC1)C(=O)NS(=O)(=O)C1CC1 [Compound 134, (5R,8S)-N-{(1R,2R)-1-[(cyclopropylsulfonyl)carba-moyl]-2-ethylcyclopropyl}-7-[(2S)-2-({(2S)-3,3-dimethyl-2-[(pyrazin-2-ylcarbonyl)amino]butanoyl}amino)-3,3-dimethylbutanoyl]-10,10-dimethyl-7-azadispiro[3.0.4.1]decane-8-carboxamide] | 40 nM
C=C[C@@H]1C[C@]1(NC(=O)[C@@H]1C[C@@]2(CN1C(=O)[C@@H](NC(=O)[C@@H](NC(=O)[C@H]1CCN1C(C)C)C(C)(C)C)C(C)(C)C)C(C)(C)C21CCC1)C(=O)NS(=O)(=O)C1CC1 [Compound 135, (5R,8S)-N-{(1R,2S)-1-[(cyclopropylsulfonyl)carba-moyl]-2-vinylcyclopropyl}-7-[(2S)-2-{[(2S)-2-({[(2R)-1-isopropylazetidin-2-yl]carbonyl}amino)-3,3-dimethylbutanoyl]amino}-3,3-dimethylbutanoyl]-10,10-dimethyl-7-azadispiro[3.0.4.1]decane-8-carboxamide] | 15 nM
C=C[C@@H]1C[C@]1(NC(=O)[C@@H]1C[C@@]2(CN1C(=O)[C@@H](NC(=O)[C@@H](NC(=O)c1c(C)n[nH]c1C)C(C)(C)C)C(C)(C)C)C(C)(C)C21CCC1)C(=O)NS(=O)(=O)C1CC1 [Compound 136, (5R,8S)-N-{(1R,2S)-1-[(cyclopropylsulfonyl)carba-moyl]-2-vinylcyclopropyl}-7-[(2S)-2-{[(2S)-2-{[(3,5-dimethyl-1H-pyrazol-4-yl)carbonyl]amino}-3,3-dimethylbutanoyl]amino}-3,3-dimethylbutanoyl]-10,10-dimethyl-7-azadispiro[3.0.4.1]decane-8-carboxamide] | 20 nM
C=C[C@@H]1C[C@]1(NC(=O)[C@@H]1C[C@@]2(CN1C(=O)[C@@H](NC(=O)[C@@H](NC(=O)c1c(C)nn(C)c1C)C(C)(C)C)C(C)(C)C)C(C)(C)C21CCC1)C(=O)NS(=O)(=O)C1CC1 [Compound 137, (5R,8S)-N-{(1R,2S)-1-[(cyclopropylsulfonyl)carba-moyl]-2-vinylcyclopropyl}-7-[(2S)-2-{[(2S)-3,3-dimethyl-2-{[(1,3,5-trimethyl-1H-pyrazol-4-yl)carbonyl]amino}butanoyl]amino}-3,3-dimethylbutanoyl]-10,10-dimethyl-7-azadispiro[3.0.4.1]decane-8-carboxamide] | 30 nM
